The results in this text go back to ChEMBL document CHEMBL3822409, “Synthesis and antitubercular activity of new 1,3,4-oxadiazoles bearing pyridyl and thiazolyl scaffolds” (Bioorg Med Chem Lett, 2016).

Data set [1] is described as follows: Selectivity index, ratio of CC50 for human HCT116 cells to MIC for dormant stage of Mycobacterium bovis BCG ATCC 35734. The format is toxicity, cell-based, HCT-116. The note with it: read-out: Selectivity Index.
In data set [2] the test system is Mycobacterium tuberculosis. Briefly: Antimycobacterial activity against dormant stage of Mycobacterium tuberculosis H37Ra ATCC 25177 measured on day 12 by XTT reduction menadione assay. The note with it: H37Ra ATCC 25177, 288 h. The format is functional, organism-based. For orientation: Tetrazolium dyes change colour on reduction, which living cells bring about.

Data set [3] is described as follows: Cytotoxicity against human THP1 cells by MTT assay. The format is cell-based, THP-1.
A short description of data set [4]: Selectivity index, ratio of CC50 for human THP1 cells to MIC for active stage of Mycobacterium bovis BCG ATCC 35734. It is filed as toxicity, cell-based, THP-1. The note with it: read-out: Selectivity Index.
A short description of data set [5]: Selectivity index, ratio of CC50 for human HeLa cells to MIC for dormant stage of Mycobacterium bovis BCG ATCC 35734. The format is toxicity, cell-based. The note with it: read-out: Selectivity Index.
Data set [6] deals with Mycobacterium tuberculosis. As to the kind of experiment: Antimycobacterial activity against active stage of Mycobacterium tuberculosis H37Ra ATCC 25177 measured on day 8 by XTT reduction menadione assay. The format is functional, organism-based. The following applies: H37Ra ATCC 25177, 192 h.
Data set [7] can be described thus: Selectivity index, ratio of CC50 for human HeLa cells to MIC for active stage of Mycobacterium bovis BCG ATCC 35734. It is filed as toxicity, cell-based. The following applies: read-out: Selectivity Index.
Data set [8] is described as follows: Cytotoxicity against human HeLa cells by MTT assay. The format is cell-based.
A short description of data set [9]: Cytotoxicity against human HCT116 cells by MTT assay. The format is cell-based, HCT-116.
Data set [10] in a line: Selectivity index, ratio of CC50 for human PANC1 cells to MIC for dormant stage of Mycobacterium bovis BCG ATCC 35734. The format is toxicity, cell-based, PANC-1. The note with it: read-out: Selectivity Index.
Data set [11] in a line: Cytotoxicity against human PANC1 cells by MTT assay. It is filed as cell-based, PANC-1.
A short description of data set [12]: Selectivity index, ratio of CC50 for human HCT116 cells to MIC for active stage of Mycobacterium bovis BCG ATCC 35734. It is filed as toxicity, cell-based, HCT-116. The following applies: read-out: Selectivity Index.
Data set [13] is described as follows: Selectivity index, ratio of CC50 for human THP1 cells to MIC for dormant stage of Mycobacterium bovis BCG ATCC 35734. It is filed as toxicity, cell-based, THP-1. The following applies: read-out: Selectivity Index.
Data set [14] is described as follows: Selectivity index, ratio of CC50 for human PANC1 cells to MIC for active stage of Mycobacterium bovis BCG ATCC 35734. The format is toxicity, cell-based, PANC-1. The note with it: read-out: Selectivity Index.

Values after ≈ are worked out from the molar mass of the structure shown. A value given as a limit tells only on which side of the number the result lay.

By IC50 is commonly meant the concentration that inhibits the measured activity by half. Read a high IC50 as lower potency. One may read the MIC as the least concentration at which growth counts as inhibited. Read a low MIC as a more susceptible organism. For orientation: CC50 means the concentration that lowers cell viability or growth by half. Low readings indicate greater toxicity to the cells, high ones lower toxicity to the cells.

Turning to `Cc1ccccc1-c1nnc(-c2sc(-c3cccnc3)nc2C)o1`, the selectivity ratio is 20 in data set [1]; 17 in data set [4]; 20 in data set [5]; 17 in [7]; 20 in data set [10]; 17 in data set [12]. The selectivity ratio stood at 20 in data set [13] and 17 in [14]. In addition, the IC50 in data set [2] and in [6] was > 30 µg/mL throughout. Also, the MIC in [2] and in data set [6] was > 30 µg/mL in each case. Besides, the CC50 in data set [3], in [8], in [9] and in data set [11] was > 100 µg/mL each time.
For `Cc1ccc(-c2nnc(-c3sc(-c4cccnc4)nc3C)o2)cc1`, the selectivity ratio in data set [1], in data set [4], in data set [5], in data set [7], in data set [10] and in data set [12] was 3 throughout. In addition, the selectivity ratio in data set [13] and in [14] was 3 in each case. Further, the IC50 in data set [2] and in [6] was > 30 µg/mL each time. In addition, the MIC in [2] and in [6] was > 30 µg/mL throughout. Also, the CC50 in data set [3], in data set [8], in data set [9] and in data set [11] was > 100 µg/mL throughout.
For the molecule `Cc1nc(-c2cccnc2)sc1-c1nnc(-c2ccccc2[N+](=O)[O-])o1`, the selectivity ratio was 17 in data set [1]; 39 in data set [4]; 17 in data set [5]; 39 in data set [7]; 17 in data set [10]; 39 in [12]. For the same molecule, the selectivity ratio in data set [13] was 17; in [14], 39. For the same molecule, the IC50 in data set [2] and in [6] was > 30 µg/mL each time. Moreover, the MIC in data set [2] and in data set [6] was > 30 µg/mL each time. Besides, the CC50 in data set [3], in [8], in data set [9] and in data set [11] was > 100 µg/mL each time.
For the molecule `CC(=O)O[C@H]1C(=O)[C@@]2(C)[C@H]([C@H](OC(=O)c3ccccc3)[C@]3(O)C[C@H](OC(=O)[C@H](O)[C@@H](NC(=O)c4ccccc4)c4ccccc4)C(C)=C1C3(C)C)[C@]1(OC(C)=O)CO[C@@H]1C[C@@H]2O` [PACLITAXEL], the CC50 in [3] is 0.137 µg/mL (≈ 0.161 µM); in data set [8], 0.0048 µg/mL (≈ 0.00562 µM); in data set [9], 1.85 µg/mL (≈ 2.17 µM); in [11], 0.128 µg/mL (≈ 0.15 µM).
Regarding `Cc1nc(-c2cccnc2)sc1-c1nnc(-c2ccc(O)cc2)o1`, the selectivity ratio in data set [1], in [4], in [5], in data set [7], in data set [10] and in [12] was 3 throughout. The selectivity ratio in [13] and in data set [14] was 3 each time. Further, the IC50 in [2] and in [6] was > 30 µg/mL in each case. In addition, the MIC in data set [2] and in [6] was > 30 µg/mL in each case. The CC50 in [3], in [8], in data set [9] and in [11] was > 100 µg/mL each time.
As for `Cc1nc(-c2cccnc2)sc1-c1nnc(Cc2ccccc2)o1`, the selectivity ratio in [1] was 10; in [4], 9; in data set [5], 10; in data set [7], 9; in data set [10], 10; in data set [12], 9. Also, the selectivity ratio in [13] turned out to be 10; in [14] it was 9. The concentration for half-maximal inhibition (IC50) in data set [2] and in data set [6] was > 30 µg/mL throughout. In addition, the MIC in data set [2] and in data set [6] was > 30 µg/mL each time. The CC50 in data set [3], in [8], in [9] and in [11] was > 100 µg/mL in each case.
On to `Cc1nc(-c2cccnc2)sc1-c1nnc(-c2cccc(Cl)c2Cl)o1`, for which the selectivity ratio in [1], in data set [4], in data set [5], in [7], in data set [10] and in data set [12] was 3 in each case. The selectivity ratio in [13] and in [14] was 3 in each case. In addition, the IC50 in [2] and in data set [6] was > 30 µg/mL throughout. The MIC in data set [2] and in [6] was > 30 µg/mL each time. For the same molecule, the CC50 in [3], in data set [8], in data set [9] and in data set [11] was > 100 µg/mL throughout.
`Cc1nc(-c2cccnc2)sc1-c1nnc(-c2ccc(Br)cc2)o1`: the selectivity ratio in [1], in data set [4], in data set [5], in [7], in data set [10] and in data set [12] was 3 each time. Further, the selectivity ratio in data set [13] and in data set [14] was 3 throughout. Also, the IC50 in data set [2] and in data set [6] was > 30 µg/mL throughout. The MIC in data set [2] and in [6] was > 30 µg/mL each time. For the same molecule, the CC50 in [3], in [8], in data set [9] and in data set [11] was > 100 µg/mL each time.
On to `Cc1nc(-c2cccnc2)sc1-c1nnc(-c2ccccc2Cl)o1`, for which the selectivity ratio in data set [1] is 21; in data set [4] it was 19; in [5], 21; in data set [7] it was 19; in [10], 21; in data set [12], 19. In addition, the selectivity ratio was determined as 21 in data set [13] and 19 in data set [14]. For the same molecule, the IC50 in data set [2] and in data set [6] was > 30 µg/mL throughout. Moreover, the MIC in [2] and in data set [6] was > 30 µg/mL in each case. For the same molecule, the CC50 in data set [3], in data set [8], in data set [9] and in [11] was > 100 µg/mL each time.
Take `COc1ccccc1-c1nnc(-c2sc(-c3cccnc3)nc2C)o1`: the selectivity ratio in [1] is 25; in data set [4], 38; in [5] it was 25; in [7], 38; in data set [10], 25; in data set [12] it was 38. Further, the selectivity ratio in [13] came out at 25; in data set [14] it was 38. The IC50 in [2] and in data set [6] was > 30 µg/mL in each case. The MIC in data set [2] and in data set [6] was > 30 µg/mL throughout. Further, the CC50 in data set [3], in [8], in data set [9] and in [11] was > 100 µg/mL each time.
For the molecule `Cc1nc(-c2cccnc2)sc1-c1nnc(-c2ccc([N+](=O)[O-])cc2)o1`, the selectivity ratio in data set [1], in data set [4], in [5], in data set [7], in data set [10] and in data set [12] was 3 throughout. The selectivity ratio in [13] and in data set [14] was 3 in each case. For the same molecule, the IC50 in data set [2] and in [6] was > 30 µg/mL throughout. Moreover, the MIC in data set [2] and in data set [6] was > 30 µg/mL throughout. In addition, the CC50 in data set [3], in data set [8], in data set [9] and in [11] was > 100 µg/mL throughout.
Take `Cc1nc(-c2cccnc2)sc1-c1nnc(-c2ccccc2)o1`: the selectivity ratio in data set [1], in data set [4], in data set [5], in [7], in data set [10] and in data set [12] was 3 throughout. Moreover, the selectivity ratio in [13] and in [14] was 3 throughout. Besides, the IC50 in [2] and in data set [6] was > 30 µg/mL in each case. For the same molecule, the MIC in [2] and in [6] was > 30 µg/mL throughout. The CC50 in data set [3], in [8], in data set [9] and in [11] was > 100 µg/mL throughout.
In the case of `Cc1nc(-c2cccnc2)sc1-c1nnc(-c2ccncc2)o1`, the selectivity ratio in [1], in data set [4], in [5], in data set [7], in data set [10] and in data set [12] was 2 each time. Also, the selectivity ratio in data set [13] and in [14] was 2 throughout. In addition, the IC50 in data set [2] and in [6] was > 30 µg/mL each time. Also, the MIC in data set [2] and in [6] was > 30 µg/mL each time. Besides, the CC50 in data set [3], in data set [8], in data set [9] and in data set [11] was > 100 µg/mL throughout.
